# From PubChem BioAssay (NCI)
#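 Grown in 96-well plates, cells were treated for 48 hours with each compound at five concentrations. Insufficient inhibition: endpoint recorded as highest concentration tested. Abbreviation: GI50, concentration required for 50% inhibition of growth. The concentration for full growth arrest is given as TGI.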
# Tests used:
# Assay in all cases: NCI-60 cell line screen, 48 h
# [1] = test system: 786-0 renal
# [2] = test system: A498 renal
# [3] = test system: A549 NSCLC
# [4] = test system: ACHN renal
# [5] = test system: BT-549 breast
# [6] = test system: CAKI-1 renal
# [7] = test system: CCRF-CEM leukemia
# [8] = test system: COLO 205 colon
# [9] = test system: DU-145 prostate
# [10] = test system: EKVX NSCLC
# [11] = test system: HCC-2998 colon
# [12] = test system: HCT-116 colon
# [13] = test system: HCT-15 colon
# [14] = test system: HL-60(TB) leukemia
# [15] = test system: HOP-62 NSCLC
# [16] = test system: HS 578T breast
# [17] = test system: HT29 colon
# [18] = test system: IGROV1 ovarian
# [19] = test system: K-562 leukemia
# [20] = test system: KM12 colon
# [21] = test system: LOX IMVI melanoma
# [22] = test system: M14 melanoma
# [23] = test system: MALME-3M melanoma
# [24] = test system: MCF7 breast
# [25] = test system: MDA-MB-231 breast
# [26] = test system: MDA-MB-435
# [27] = test system: MOLT-4 leukemia
# [28] = test system: NCI-H226 lung
# [29] = test system: NCI-H23 lung
# [30] = test system: NCI-H460 lung
# [31] = test system: NCI-H522 lung
# [32] = test system: NCI/ADR-RES ovarian
# [33] = test system: OVCAR-3 ovarian
# [34] = test system: OVCAR-4 ovarian
# [35] = test system: OVCAR-5 ovarian
# [36] = test system: OVCAR-8 ovarian
# [37] = test system: PC-3 prostate
# [38] = test system: RPMI-8226 leukemia
# [39] = test system: RXF 393 renal
# [40] = test system: SF-268 CNS
# [41] = test system: SF-295 CNS
# [42] = test system: SF-539 CNS
# [43] = test system: SK-MEL-2 melanoma
# [44] = test system: SK-MEL-28 melanoma
# [45] = test system: SK-MEL-5 melanoma
# [46] = test system: SK-OV-3 ovarian
# [47] = test system: SN12C renal
# [48] = test system: SNB-19 CNS
# [49] = test system: SNB-75 CNS
# [50] = test system: SR leukemia
# [51] = test system: SW-620 colon
# [52] = test system: T-47D breast
# [53] = test system: TK-10 renal
# [54] = test system: U251 CNS
# [55] = test system: UACC-257 melanoma
# [56] = test system: UACC-62 melanoma
# [57] = test system: UO-31 renal
compound,measurement,setting,value
CC12OC(c3ccccc3)=CC(c3ccc(Cl)cc3)=C1C(c1ccccc1)=CC2=O (centres undefined),GI50,[1],94.7 µM
same,TGI,[1],> 100 µM
same,GI50,[2],> 100 µM
same,TGI,[2],> 100 µM
same,GI50,[3],89.1 µM
same,TGI,[3],> 100 µM
same,GI50,[4],55.4 µM
same,TGI,[4],> 100 µM
same,GI50,[5],> 100 µM
same,TGI,[5],> 100 µM
same,GI50,[6],> 100 µM
same,TGI,[6],> 100 µM
same,GI50,[7],56.2 µM
same,TGI,[7],> 100 µM
same,GI50,[8],64.9 µM
same,TGI,[8],> 100 µM
same,GI50,[9],> 100 µM
same,TGI,[9],> 100 µM
same,GI50,[10],> 100 µM
same,TGI,[10],> 100 µM
same,GI50,[11],75.2 µM
same,TGI,[11],> 100 µM
same,GI50,[12],46.1 µM
same,TGI,[12],> 100 µM
same,GI50,[13],26.3 µM
same,TGI,[13],> 100 µM
same,GI50,[14],23.2 µM
same,TGI,[14],77.7 µM
same,GI50,[15],> 100 µM
same,TGI,[15],> 100 µM
same,GI50,[16],> 100 µM
same,TGI,[16],> 100 µM
same,GI50,[17],27.7 µM
same,TGI,[17],> 100 µM
same,GI50,[18],> 100 µM
same,TGI,[18],> 100 µM
same,GI50,[19],28.9 µM
same,TGI,[19],> 100 µM
same,GI50,[20],71.8 µM
same,TGI,[20],> 100 µM
same,GI50,[21],46 µM
same,TGI,[21],> 100 µM
same,GI50,[22],28.2 µM
same,TGI,[22],83 µM
same,GI50,[23],> 100 µM
same,TGI,[23],> 100 µM
same,GI50,[24],60.8 µM
same,TGI,[24],> 100 µM
same,GI50,[25],67.2 µM
same,TGI,[25],> 100 µM
same,GI50,[26],81.3 µM
same,TGI,[26],> 100 µM
same,GI50,[27],20.6 µM
same,TGI,[27],75.6 µM
same,GI50,[28],68.1 µM
same,TGI,[28],> 100 µM
same,GI50,[29],41.5 µM
same,TGI,[29],> 100 µM
same,GI50,[30],34.8 µM
same,TGI,[30],> 100 µM
same,GI50,[31],72.2 µM
same,TGI,[31],> 100 µM
same,GI50,[32],55.9 µM
same,TGI,[32],> 100 µM
same,GI50,[33],80 µM
same,TGI,[33],> 100 µM
same,GI50,[34],19 µM
same,TGI,[34],> 100 µM
same,GI50,[35],> 100 µM
same,TGI,[35],> 100 µM
same,GI50,[36],> 100 µM
same,TGI,[36],> 100 µM
same,GI50,[37],34.4 µM
same,TGI,[37],> 100 µM
same,GI50,[38],17.3 µM
same,TGI,[38],47.2 µM
same,GI50,[39],19.1 µM
same,TGI,[39],> 100 µM
same,GI50,[40],> 100 µM
same,TGI,[40],> 100 µM
same,GI50,[41],25 µM
same,TGI,[41],> 100 µM
same,GI50,[42],> 100 µM
same,TGI,[42],> 100 µM
same,GI50,[43],> 100 µM
same,TGI,[43],> 100 µM
same,GI50,[44],66.5 µM
same,TGI,[44],> 100 µM
same,GI50,[45],42.1 µM
same,TGI,[45],> 100 µM
same,GI50,[46],> 100 µM
same,TGI,[46],> 100 µM
same,GI50,[47],> 100 µM
same,TGI,[47],> 100 µM
same,GI50,[48],> 100 µM
same,TGI,[48],> 100 µM
same,GI50,[49],33.4 µM
same,TGI,[49],> 100 µM
same,GI50,[50],19.1 µM
same,TGI,[50],67 µM
same,GI50,[51],90.4 µM
same,TGI,[51],> 100 µM
same,GI50,[52],35.8 µM
same,TGI,[52],> 100 µM
same,GI50,[53],> 100 µM
same,TGI,[53],> 100 µM
same,GI50,[54],33.1 µM
same,TGI,[54],> 100 µM
same,GI50,[55],49.3 µM
same,TGI,[55],> 100 µM
same,GI50,[56],49.4 µM
same,TGI,[56],> 100 µM
same,GI50,[57],> 100 µM
same,TGI,[57],> 100 µM
